According to patent US5047431A, “1,1,2-triphenylbut-1-ene derivatives” (Klinge Pharma GmbH & Co., priority 1980, dated 1991):
Entries after “also recorded” stand apart in the source; their conditions may differ.

Key:
[1] = background art; cited from earlier work
estradiol receptor = target: T1, estradiol receptor (Oryctolagus cuniculus, UniProt G1SML6); assay: Binding affinity to the estradiol receptor (displacement of [3H]-estradiol from uterus cytosol); set-up: species or system rabbit (New Zealand rabbits); settings: uterus cytosol of prepuberal rabbits, 18 hours at 4° C., 2.5×10^-9 M [3H]-estradiol; read-out: ED50% (concentration of the substance which replaces 50% [3H]-estradiol from the estradiol receptor)
T1 construct: The uterus cytosol of female, prepuberal white rabbits; from tissue; host or cells: uterus cytosol of female prepuberal New Zealand white rabbits
T1 sequence (G1SML6 1-598): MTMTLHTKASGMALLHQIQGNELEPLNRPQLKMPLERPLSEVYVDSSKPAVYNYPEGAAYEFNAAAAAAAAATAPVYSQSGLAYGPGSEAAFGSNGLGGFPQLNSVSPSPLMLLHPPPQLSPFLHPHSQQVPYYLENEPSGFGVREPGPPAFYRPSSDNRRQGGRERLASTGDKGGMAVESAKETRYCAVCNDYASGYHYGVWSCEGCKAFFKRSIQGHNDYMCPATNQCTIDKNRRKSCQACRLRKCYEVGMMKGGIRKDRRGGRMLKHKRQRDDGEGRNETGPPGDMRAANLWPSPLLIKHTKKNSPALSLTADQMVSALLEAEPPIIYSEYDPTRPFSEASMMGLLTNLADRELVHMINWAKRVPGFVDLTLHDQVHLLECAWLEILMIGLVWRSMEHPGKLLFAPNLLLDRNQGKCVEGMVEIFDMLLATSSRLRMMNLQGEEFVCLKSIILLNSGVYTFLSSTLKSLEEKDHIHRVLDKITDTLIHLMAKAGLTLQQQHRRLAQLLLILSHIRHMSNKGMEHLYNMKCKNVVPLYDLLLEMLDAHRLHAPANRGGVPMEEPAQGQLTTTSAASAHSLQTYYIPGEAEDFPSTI
Procedure: The determination of the binding affinity to the estradiol receptor was made using rabbit uterus cytosol.
The binding affinity to the estradiol receptor was measured according to the method of N. Devleeschouwer, G. Leclercq, A. Danguy and J.C. Heuson [Europ.
H]-estradiol from the estradiol receptor.

[2] = test system: 7,12-dimethylbenz(a)anthracene-induced mammary tumor; assay: Inhibitory effect on the 7,12-dimethylbenz(a)anthracene-induced mammary tumor; format: in vivo, female Sprague-Dawley rat (Hanover breed); settings: compared with tamoxifen under the same test conditions
Procedure: Twice weekly and on the 28th day of testing the number of animals was determined and the tumor surface (mm^2 /animal) of the therapy animals and control animals was measured. At the end of testing, the percentage increase of the average tumor surface of the treated animals was determined in comparison to the control animals, the surface of the latter being taken as 100%.

[3] = test system: hormone-dependent mammary; settings: background art; cited from earlier work

CC/C(=C(\c1ccc(O)cc1)c1ccc(OCCN(C)C)cc1)c1ccccc1 [4-hydroxytamoxifen]
anti-estrogenic activity (in words) [1]: antiestrogenic effect comparable to tamoxifen

CC/C(=C(/c1ccc(OCCN(C)C)cc1)c1cccc(O)c1)c1ccccc1 [Compound 1, (E)-1-[4'-(2-Dimethylaminoethoxy)phenyl]-1-(3-hydroxyphenyl)-2-phenylbut-1-ene]
IC50 (estradiol receptor): 0.024 µM | inhibitory activity on the mammary tumor (in words) [2]: above the activity of tamoxifen; also recorded: clearly superior to tamoxifen in the inhibitory activity on the tumor

CC/C(=C(/c1ccc(OCCN(CC)CC)cc1)c1cccc(O)c1)c1ccccc1 [Compound 2, (E)-1-[4'-(2-Diethylaminoethoy)phenyl]-1-(3'-hydroxyphenyl)-2-phenylbut-1-ene]
IC50 (estradiol receptor): 0.065 µM

CC/C(=C(/c1ccc(OCCNC)cc1)c1cccc(O)c1)c1ccccc1 [Compound 3, (E)-1-(3'-Hydroxyphenyl)-1-[4'-(2-methylaminoethoxy)phenyl]-2-phenylbut-1-ene]
IC50 (estradiol receptor): 0.037 µM

CC/C(=C(\c1ccccc1)c1ccc(OCCN(C)C)cc1)c1ccccc1 [Tamoxifen, (Z)-1-[4'-(2-dimethylaminoethoxy)phenyl]-1,2-diphenylbut-1-ene]
anti-estrogenic activity (in words) [1]: marked anti-estrogenic activity | therapy of hormone-dependent mammary tumors (in words) [3]: already proved successful in the therapy of hormone-dependent mammary
